Source: patent publication US12447153B2, “HER2 mutation inhibitors” (Array BioPharma Inc., priority 2021, dated 2025)

Key:
[1] = biological target: ErbB2 with Exon 20 YVMA insertion (HER2-YVMA) (Homo sapiens (Human), UniProt P04626, INS775YVMA); assay: Cellular Phosphorylation Assay, Assay 4 (constitutive ErbB2 phosphorylation, NIH 3T3 cells); assay type: cell-based
Experimental: (§1) NIH 3T3 cells were engineered to express ErbB2 with Exon 20 YVMA insertion (HER2-YVMA (SEQ ID NO: 2); Assay 4) or EGFR wild type (EGFR WT; Assay 5) with constructs obtained from GenScript and grown in DMEM supplemented with 10% fetal bovine serum and 15 μg/ml blasticidin. […] Serially diluted compounds were added to the plates for 1 hour at 37° C./5% CO2. EGFR WT cells were stimulated with 100 ng/ml rEGF for an additional 10 minutes at 37° C./5% CO2.
(§2) After compound incubation, medium was removed from the cells, which were then fixed in 3.7% formaldehyde in PBS at room temperature for 20 minutes. Following a wash with PBS, cells were permeabilized with 100% methanol at room temperature for 10 minutes. Cells were then washed with PBS/0.05% Tween-20 and blocked with Odyssey blocking buffer (LI-COR Biosciences) for at least 1 hour at room temperature. Antibodies to phosphorylated ErbB2 (Y1196, Cell Signaling #6942) or phosphorylated EGFR (Y1068, Cell Signaling #3777) and GAPDH (Millipore #MAB374) were added to the cells in blocking buffer containing 0.05% azide and incubated overnight at 4° C. After washing with PBS/0.05% Tween-20, the cells were incubated with fluorescently labeled secondary anti-rabbit antibody (LiCOR, IRDye 800CW #926-32211) and anti-mouse antibody (Molecular Probes, Alexa Fluor 680 #A21058) for 1 hour at room temperature in the dark. Cells were then washed and analyzed for fluorescence at both wavelengths using the Odyssey Infrared Imaging System (LI-COR Biosciences). Phosphorylated ErbB2 and EGFR signal was normalized to GAPDH signal to generate curves and calculate IC50 values.

EGFR = EGFR (Homo sapiens (Human), UniProt P00533); assay: ErbB Enzyme Assay (HTRF KinEASE-TK), Assay 3; assay type: biochemical
Experimental: The kinases were incubated with 250 nM TK-substrate biotin (CisBio, part of cat #62TKOPEC) at 1 mM ATP along with test compounds in a buffer consisting of 25 mM HEPES, pH 7.4, 10 mM MgCl2, 0.01% Triton X-100, and 2% DMSO in a volume of 8 μL. […] After 30-minute incubation at 22° C., the reaction was quenched by adding 8 μL of quench solution containing 62.5 nM Sa-XL665 and 0.25×TK-Ab-Cryptate in HTRF detection buffer (all from CisBio, part of cat #62TKOPEC). […] A 4-parameter logistic curve was fit to the POC values as a function of the concentration of compound, and the IC50 value was the point where the best-fit curve crossed 50 POC.

EGFR wild type (EGFR WT) = EGFR wild type (EGFR WT) (Homo sapiens (Human), UniProt P00533); assay: Cellular Phosphorylation Assay, Assay 5 (EGF-stimulated EGFR phosphorylation, NIH 3T3 cells); assay type: cell-based
Experimental: as §1, §2

ErbB2 WT = ErbB2 WT (Homo sapiens (Human), UniProt P04626); assay: ErbB Enzyme Assay (HTRF KinEASE-TK), Assay 2; assay type: biochemical
Experimental: The kinases were incubated with 250 nM TK-substrate biotin (CisBio, part of cat #62TKOPEC) at 1 mM ATP along with test compounds in a buffer consisting of 25 mM HEPES, pH 7.4, 10 mM MgCl2, 0.01% Triton X-100, and 2% DMSO in a volume of 8 μL. […] After 30-minute incubation at 22° C., the reaction was quenched by adding 8 μL of quench solution containing 62.5 nM Sa-XL665 and 0.25×TK-Ab-Cryptate in HTRF detection buffer (all from CisBio, part of cat #62TKOPEC).

[2] = cellular ErbB2 YVMA phosphorylation
[3] = cellular EGFR WT phosphorylation, EGF-stimulated
[4] = EGF-stimulated EGFR WT phosphorylation

EGFR wild type (EGFR WT), sequence (P00533 25-1210): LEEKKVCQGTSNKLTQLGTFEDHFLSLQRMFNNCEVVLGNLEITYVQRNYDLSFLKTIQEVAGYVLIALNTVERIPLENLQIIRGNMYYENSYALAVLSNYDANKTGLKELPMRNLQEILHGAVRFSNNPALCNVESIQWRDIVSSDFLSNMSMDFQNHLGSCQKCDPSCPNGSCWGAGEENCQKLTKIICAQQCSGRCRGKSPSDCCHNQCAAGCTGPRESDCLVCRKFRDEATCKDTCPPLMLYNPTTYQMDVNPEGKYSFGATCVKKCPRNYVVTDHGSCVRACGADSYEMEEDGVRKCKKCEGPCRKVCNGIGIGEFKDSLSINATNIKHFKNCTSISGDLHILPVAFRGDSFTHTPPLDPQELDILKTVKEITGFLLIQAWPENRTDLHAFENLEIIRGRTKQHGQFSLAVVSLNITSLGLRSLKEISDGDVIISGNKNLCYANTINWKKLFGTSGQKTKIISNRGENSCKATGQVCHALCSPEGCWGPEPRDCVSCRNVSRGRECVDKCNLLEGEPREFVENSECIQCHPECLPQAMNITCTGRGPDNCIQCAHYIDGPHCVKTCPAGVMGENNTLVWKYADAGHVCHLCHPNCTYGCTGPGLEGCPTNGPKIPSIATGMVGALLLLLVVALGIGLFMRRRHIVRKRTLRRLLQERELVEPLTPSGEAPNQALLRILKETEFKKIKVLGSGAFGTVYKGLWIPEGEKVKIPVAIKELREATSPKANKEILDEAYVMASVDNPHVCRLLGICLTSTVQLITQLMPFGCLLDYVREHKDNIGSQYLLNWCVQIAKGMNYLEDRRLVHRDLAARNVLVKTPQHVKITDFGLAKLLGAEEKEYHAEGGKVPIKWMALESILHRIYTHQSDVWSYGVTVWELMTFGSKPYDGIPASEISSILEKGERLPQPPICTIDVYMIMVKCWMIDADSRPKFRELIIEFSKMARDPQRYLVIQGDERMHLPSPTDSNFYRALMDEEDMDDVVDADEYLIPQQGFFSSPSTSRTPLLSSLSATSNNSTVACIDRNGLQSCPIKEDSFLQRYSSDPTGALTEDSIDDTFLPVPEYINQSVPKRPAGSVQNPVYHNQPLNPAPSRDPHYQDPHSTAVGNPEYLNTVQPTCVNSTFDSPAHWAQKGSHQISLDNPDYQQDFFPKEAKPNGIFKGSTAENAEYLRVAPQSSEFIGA
EGFR, sequence (P00533 25-1210): as above
ErbB2 with Exon 20 YVMA insertion (HER2-YVMA), sequence (P04626 other isoform, or with tags, fused parts or gaps ins YVMA behind 775): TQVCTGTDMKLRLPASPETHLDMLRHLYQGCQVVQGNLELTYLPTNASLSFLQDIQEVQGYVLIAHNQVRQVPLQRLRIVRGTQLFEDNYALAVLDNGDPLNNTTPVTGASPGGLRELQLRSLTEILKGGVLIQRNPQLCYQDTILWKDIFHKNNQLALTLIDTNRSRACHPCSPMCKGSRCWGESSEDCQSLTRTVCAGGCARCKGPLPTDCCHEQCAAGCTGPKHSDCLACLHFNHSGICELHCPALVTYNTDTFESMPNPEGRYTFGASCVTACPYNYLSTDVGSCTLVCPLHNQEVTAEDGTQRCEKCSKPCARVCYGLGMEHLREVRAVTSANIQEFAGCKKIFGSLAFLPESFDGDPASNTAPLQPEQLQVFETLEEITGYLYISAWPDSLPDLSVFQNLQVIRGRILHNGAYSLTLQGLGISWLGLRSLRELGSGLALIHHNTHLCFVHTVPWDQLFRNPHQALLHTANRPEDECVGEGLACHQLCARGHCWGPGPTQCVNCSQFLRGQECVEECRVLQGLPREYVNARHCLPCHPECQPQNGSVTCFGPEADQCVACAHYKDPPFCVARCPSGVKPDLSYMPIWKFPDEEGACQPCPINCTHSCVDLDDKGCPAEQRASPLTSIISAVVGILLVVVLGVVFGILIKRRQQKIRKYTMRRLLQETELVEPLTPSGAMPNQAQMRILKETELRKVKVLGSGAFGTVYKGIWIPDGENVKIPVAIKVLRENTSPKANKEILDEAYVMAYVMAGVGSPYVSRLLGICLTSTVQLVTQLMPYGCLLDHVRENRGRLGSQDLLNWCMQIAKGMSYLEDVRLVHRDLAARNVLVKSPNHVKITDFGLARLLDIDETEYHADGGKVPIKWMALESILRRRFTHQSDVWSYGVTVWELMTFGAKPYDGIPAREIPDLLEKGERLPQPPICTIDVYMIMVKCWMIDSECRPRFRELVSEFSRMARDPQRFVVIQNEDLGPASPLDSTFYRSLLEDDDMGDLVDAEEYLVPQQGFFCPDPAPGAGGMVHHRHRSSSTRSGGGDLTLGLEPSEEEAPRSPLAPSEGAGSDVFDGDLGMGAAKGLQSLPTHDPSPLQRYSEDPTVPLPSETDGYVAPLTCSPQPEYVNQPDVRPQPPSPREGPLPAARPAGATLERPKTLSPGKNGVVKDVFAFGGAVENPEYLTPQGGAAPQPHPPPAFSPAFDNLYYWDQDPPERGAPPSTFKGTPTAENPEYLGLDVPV
ErbB2 WT, sequence (P04626 23-1255): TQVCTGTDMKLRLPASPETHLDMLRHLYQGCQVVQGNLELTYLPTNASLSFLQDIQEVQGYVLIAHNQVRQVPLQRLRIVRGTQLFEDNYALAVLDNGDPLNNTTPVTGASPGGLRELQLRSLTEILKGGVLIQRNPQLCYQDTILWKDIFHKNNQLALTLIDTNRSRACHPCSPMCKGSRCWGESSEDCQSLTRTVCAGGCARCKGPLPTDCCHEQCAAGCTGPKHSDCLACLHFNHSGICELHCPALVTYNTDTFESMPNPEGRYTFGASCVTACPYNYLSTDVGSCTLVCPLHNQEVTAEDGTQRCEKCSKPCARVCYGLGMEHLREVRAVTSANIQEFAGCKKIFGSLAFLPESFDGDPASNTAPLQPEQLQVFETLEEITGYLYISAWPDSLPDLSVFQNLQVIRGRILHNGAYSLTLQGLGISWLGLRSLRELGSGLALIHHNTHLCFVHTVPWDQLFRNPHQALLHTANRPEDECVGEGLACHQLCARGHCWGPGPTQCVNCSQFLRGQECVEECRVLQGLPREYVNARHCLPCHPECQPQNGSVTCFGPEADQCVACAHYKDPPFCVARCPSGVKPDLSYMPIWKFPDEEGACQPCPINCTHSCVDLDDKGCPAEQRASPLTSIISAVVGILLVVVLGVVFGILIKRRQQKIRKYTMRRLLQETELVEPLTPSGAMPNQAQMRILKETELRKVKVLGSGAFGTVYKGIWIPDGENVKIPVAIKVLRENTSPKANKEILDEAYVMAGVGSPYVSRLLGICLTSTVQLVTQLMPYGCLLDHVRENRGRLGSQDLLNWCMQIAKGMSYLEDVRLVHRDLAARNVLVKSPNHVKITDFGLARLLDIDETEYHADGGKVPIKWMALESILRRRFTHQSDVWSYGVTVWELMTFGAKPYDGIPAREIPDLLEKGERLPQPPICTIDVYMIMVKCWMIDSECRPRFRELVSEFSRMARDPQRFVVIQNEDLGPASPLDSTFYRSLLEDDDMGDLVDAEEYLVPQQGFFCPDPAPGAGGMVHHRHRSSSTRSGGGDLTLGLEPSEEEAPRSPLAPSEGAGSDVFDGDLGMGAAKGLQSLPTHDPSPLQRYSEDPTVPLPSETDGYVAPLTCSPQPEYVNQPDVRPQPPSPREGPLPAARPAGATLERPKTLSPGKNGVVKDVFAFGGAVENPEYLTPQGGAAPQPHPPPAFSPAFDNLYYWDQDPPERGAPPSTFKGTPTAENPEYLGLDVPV

Compound | IC50 [1, 2] | IC50 (EGFR; EGFR enzyme assay) | IC50 (EGFR wild type (EGFR WT); [3]) | IC50 (ErbB2 WT; ErbB2 WT enzyme assay) | IC50 ([1]; ErbB2 YVMA phosphorylation) | IC50 (EGFR; EGFR enzyme) | IC50 (EGFR wild type (EGFR WT); [4]) | IC50 (ErbB2 WT; ErbB2 WT enzyme)
C=CC(=O)N1CCN(c2ccc3ncnc(Nc4ccc(Oc5ccn6ncnc6c5)c(Cl)c4F)c3n2)C[C@@H]1C(F)F (racemic) [Example 299] | 4.1 nM | 29.4 nM | 66.2 nM | 1.2 nM |  |  |  | 
C=CC(=O)N1CCC(Oc2ccc3ncnc(Nc4cc(C)c(Oc5ccc6cn(C)nc6c5)cc4F)c3n2)CC1 [Example 5, 1-(4-((4-((2-fluoro-5-methyl-4-((2-methyl-2H-indazol-6-yl)oxy)phenyl)amino)pyrido[3,2-d]pyrimidin-6-yl)oxy)piperidin-1-yl)prop-2-en-1-one] |  |  |  |  | 407 nM | ≥ 10000 nM | ≥ 5000 nM | 2340 nM
C=CC(=O)N1CCN(c2ccc3ncnc(Nc4ccc(Oc5ccn6ncnc6c5)c(C)c4F)c3n2)C[C@@H]1C1CC1 [Example 285] | 34.1 nM | ≥ 10000 nM | ≥ 5000 nM | 65.8 nM |  |  |  | 
C=CC(=O)N1CCCC(c2ccc3ncnc(Nc4ccc(Oc5ccn6ncnc6c5)c(C)c4F)c3n2)C1 (stereo not drawn) [Example 198, 1-(3-(4-((4-([1,2,4]triazolo[1,5-a]pyridin-7-yloxy)-2-fluoro-3-methylphenyl)amino)pyrido[3,2-d]pyrimidin-6-yl)piperidin-1-yl)prop-2-en-1-one] |  |  |  |  | 17 nM | 342 nM | 809 nM | 24.2 nM
CC#CC(=O)N1CCN(c2ccc3ncnc(Nc4ccc(Oc5ccn6ncnc6c5)c(C)c4F)c3n2)CC12CC2 [Example 182, 1-(7-(4-((4-([1,2,4]triazolo[1,5-a]pyridin-7-yloxy)-2-fluoro-3-methylphenyl)amino)pyrido[3,2-d]pyrimidin-6-yl)-4,7-diazaspiro[2.5]octan-4-yl)but-2-yn-1-one] |  |  |  |  | 76.1 nM | 6140 nM | 2730 nM | 27.3 nM
C=CC(=O)N1CC[C@H](c2ccc3ncnc(Nc4cc(C)c(Oc5ccc6c(c5)ncn6C)cc4F)c3n2)CC(C)(C)C1 (racemic) [Example 139, rac-(R)-1-(5-(4-((2-fluoro-5-methyl-4-((1-methyl-1H-benzo[d]imidazol-5-yl)oxy)phenyl)amino)pyrido[3,2-d]pyrimidin-6-yl)-3,3-dimethylazepan-1-yl)prop-2-en-1-one] |  |  |  |  | 32.5 nM | ≥ 10000 nM | ≥ 5000 nM | ≥ 10000 nM
C=CC(=O)N1CCN(c2ccc3ncnc(Nc4ccc(Oc5ccn6ncnc6c5)c(C)c4F)c3n2)C[C@@H]1C(C)C [Example 266] | 91.2 nM | ≥ 10000 nM | ≥ 5000 nM | 178 nM |  |  |  | 
C=CC(=O)N1CCN(c2ccc3ncnc(Nc4ccc(Oc5ccc6c(c5)ncn6C)c(C)c4F)c3n2)CCC1(C)C [Example 68, 1-(4-(4-((2-fluoro-3-methyl-4-((1-methyl-1H-benzo[d]imidazol-5-yl)oxy)phenyl)amino)pyrido[3,2-d]pyrimidin-6-yl)-7,7-dimethyl-1,4-diazepan-1-yl)prop-2-en-1-one] |  |  |  |  | 73.8 nM | ≥ 10000 nM | ≥ 5000 nM | 664 nM
C=CC(=O)N1CC[C@@H]2CN(c3nc4c(Nc5ccc(Oc6ccn7ncnc7c6)c(C)c5F)ncnc4cc3OC)C[C@@H]21 [Example 154, 1-((3aR,6aR)-5-(4-((4-([1,2,4]triazolo[1,5-a]pyridin-7-yloxy)-2-fluoro-3-methylphenyl)amino)-7-methoxypyrido[3,2-d]pyrimidin-6-yl)hexahydropyrrolo[3,4-d]pyrrol-1(2H)-yl)prop-2-en-1-one] |  |  |  |  | 67.8 nM | 447 nM | 3070 nM | 18 nM
C=CC(=O)N1[C@H](C)CN(c2ccc3ncnc(Nc4ccc(Oc5ccc6c(c5)ncn6C)c(C)c4F)c3n2)C[C@@H]1C [Example 115, 1-((2S,6R)-4-(4-((2-fluoro-3-methyl-4-((1-methyl-1H-benzo[d]imidazol-5-yl)oxy)phenyl)amino)pyrido[3,2-d]pyrimidin-6-yl)-2,6-dimethylpiperazin-1-yl)prop-2-en-1-one] |  |  |  |  | 82.8 nM | ≥ 10000 nM | ≥ 5000 nM | 55.4 nM
C=CC(=O)N1CCC(Oc2ccc3ncnc(Nc4ccc(Oc5cnn6ccnc6c5)c(C)c4)c3n2)CC1 [Example 8, 1-(4-((4-((4-(imidazo[1,2-b]pyridazin-7-yloxy)-3-methylphenyl)amino)pyrido[3,2-d]pyrimidin-6-yl)oxy)piperidin-1-yl)prop-2-en-1-one] |  |  |  |  | 47.3 nM | 1350 nM | 799 nM | 76.5 nM

The remaining lines, values ahead:

IC50 [1, 2] | IC50 (EGFR; EGFR enzyme assay) | IC50 (EGFR wild type (EGFR WT); [3]) | IC50 (ErbB2 WT; ErbB2 WT enzyme assay) | IC50 ([1]; ErbB2 YVMA phosphorylation) | IC50 (EGFR; EGFR enzyme) | IC50 (EGFR wild type (EGFR WT); [4]) | IC50 (ErbB2 WT; ErbB2 WT enzyme) | Compound
47.3 nM | 1990 nM | 3170 nM | 56 nM |  |  |  |  | C=CC(=O)N1CCCC(c2ccc3ncnc(Nc4cc(C)c(Oc5ccn6ncnc6c5)cc4F)c3n2)C1 (stereo not drawn) [Example 370]
52.7 nM | 1130 nM | 4080 nM | 19 nM |  |  |  |  | C=CC(=O)N1C[C@H]2C[C@@H]1[C@H](c1ccc3ncnc(Nc4ccc(Oc5ccn6ncnc6c5)c(C)c4F)c3n1)C2 [Example 372]
45.6 nM | 3240 nM | ≥ 5000 nM | 16 nM |  |  |  |  | C=CC(=O)N1CCCC(c2ccc3ncnc(Nc4cc(Cl)c(Oc5ccn6ncnc6c5)cc4F)c3n2)CC1 (stereo not drawn) [Example 400]
58.3 nM | 3000 nM | ≥ 5000 nM | 101 nM |  |  |  |  | C=CC(=O)N1C[C@@H](c2ccc3ncnc(Nc4cc(C)c(Oc5ccn6ncnc6c5)cc4F)c3n2)C[C@@H]1C (mixture of isomers) [Example 384]
70.4 nM | ≥ 10000 nM | ≥ 5000 nM | 2330 nM |  |  |  |  | C=CC(=O)N1C[C@H]2CC[C@@H]1CN2c1ccc2ncnc(Nc3cc(C)c(Oc4cnc5c(c4)ncn5C)cc3F)c2n1 [Example 367]
529 nM | ≥ 10000 nM | ≥ 5000 nM | 113 nM |  |  |  |  | C=C(C)C(=O)N1CCN(c2ccc3ncnc(Nc4ccc(Oc5ccn6ncnc6c5)c(C)c4F)c3n2)CC1(C)C [Example 341]
51.7 nM | 4010 nM | ≥ 5000 nM | 157 nM |  |  |  |  | C=CC(=O)N1C[C@H]2CC[C@@H]1C[C@@H]2c1ccc2ncnc(Nc3ccc(Oc4cnc5c(c4)ncn5C)c(C)c3F)c2n1 [Example 422]
3.2 nM | 22.3 nM | 35.8 nM | 1.8 nM |  |  |  |  | C=CC(=O)N1CCN(c2ccc3ncnc(Nc4ccc(Oc5ccn6ncnc6c5)c(Cl)c4F)c3n2)CC12CC2 [Example 363]
16.4 nM | ≥ 10000 nM | 361 nM | 14.1 nM |  |  |  |  | C=CC(=O)N1CCN(c2ccc3ncnc(Nc4ccc(Oc5ccc6c(c5)ncn6C)c(C)c4F)c3n2)CC12CC2 [Example 339]
8.2 nM | 414 nM | 348 nM | 12.1 nM |  |  |  |  | C=CC(=O)N1CCN(c2ccc3ncnc(Nc4ccc(Oc5ccn6ncnc6c5)c(Cl)c4F)c3n2)C[C@@H]1COC [Example 348]
124 nM | 5550 nM | ≥ 5000 nM | 59.4 nM |  |  |  |  | C=CC(=O)N1CC[C@H](c2ccc3ncnc(Nc4ccc(Oc5ccn6ncnc6c5)c(C)c4F)c3n2)CC1(C)C (racemic) [Example 314]
19 nM | 177 nM | 461 nM | 1.9 nM |  |  |  |  | C=CC(=O)N1CCCC(c2ccc3ncnc(Nc4ccc(Oc5ccn6ncnc6c5)c(Cl)c4F)c3n2)CC1 (stereo not drawn) [Example 399]
61.6 nM | 1970 nM | 1450 nM | 23.1 nM |  |  |  |  | CC#CC(=O)N1C[C@@H]2C[C@H]1CN2c1ccc2ncnc(Nc3ccc(Oc4ccn5ncnc5c4)c(Cl)c3F)c2n1 [Example 316]
